US20100056515A1, “BENZIMIDAZOLE COMPOUNDS” (priority 2006, published 2010)

Test system: not given
Experiment: not given
Conditions: not given
Work on CCC(CC)c1ccc(OC)c2nc(Nc3ccc(C(F)(F)F)cc3Cl)n(C)c12 [Example 16, N-[2-Chloro-4-(trifluoromethyl)phenyl]-7-(1-ethylpropyl)-4-methoxy-1-methyl-1H-benzimidazol-2-amine] yielded a melting point of 170 to 171 °C. For CCC(CC)c1ccc(Cl)c2nc(Oc3cccc4c3CN(C)C4)n(C)c12 [Example 54, 4-Chloro-7-(1-ethylpropyl)-1-methyl-2-[(2-methyl-2,3-dihydro-1H-isoindol-4-yl)oxy]-1H-benzimidazole], the melting point was 99 to 100 °C. In the case of CCC(CC)c1ccc(Cl)c2nc(Nc3c(C)cc(Cl)cc3Br)n(C)c12 [Example 49, N-(2-Bromo-4-chloro-6-methylphenyl)-4-chloro-7-(1-ethylpropyl)-1-methyl-1H-benzimidazol-2-amine], the melting point is reported as 232 to 233 °C. For CCc1ccc(C(CC)CC)c2c1nc(Oc1c(C)cc(Cl)cc1Cl)n2C [Example 71, 2-(2,4-Dichloro-6-methylphenoxy)-4-ethyl-7-(1-ethylpropyl)-1-methyl-1H-benzimidazole], the melting point was 96 to 97 °C. In the case of CCOc1ccc(C(CC)CC)c2c1nc(Oc1ccc(Cl)cc1Br)n2C [Example 72, 2-(2-Bromo-4-chlorophenoxy)-4-ethoxy-7-(1-ethylpropyl)-1-methyl-1H-benzimidazole], the melting point is reported as 93 to 94 °C. For CCC(CC)c1ccc(Cl)c2nc(Nc3c(C)cc([S+](C)[O-])cc3OC)n(C)c12 (stereo not drawn) [Example 46, 4-Chloro-7-(1-ethylpropyl)-N-[2-methoxy-6-methyl-4-(methylsulfinyl)phenyl]-1-methyl-1H-benzimidazol-2-amine], the melting point was 222 to 223 °C. For CCC(CC)c1ccc(Cl)c2nc(Oc3c(Cl)cc(Cl)cc3Br)n(C)c12 [Example 23, 2-(2-Bromo-4,6-dichlorophenoxy)-4-chloro-7-(1-ethylpropyl)-1-methyl-1H-benzimidazole], the melting point was 165 to 167 °C. Molecule CCC(CC)c1ccc(OC)c2nc(Nc3ccc(OC(F)(F)F)cc3Cl)n(C)c12 [Example 18, N-[2-Chloro-4-(trifluoromethoxy)phenyl]-7-(1-ethylpropyl)-4-methoxy-1-methyl-1H-benzimidazol-2-amine] has a melting point of 175 to 177 °C. CCC(CC)c1ccc(Cl)c2nc(Nc3ccc(Cl)cc3Cl)n(CCO)c12 [Example 100, 2-[4-Chloro-2-[(2,4-dichlorophenyl)amino]-7-(1-ethylpropyl)-1H-benzimidazol-1-yl]ethanol] gave a melting point of 192 to 193 °C. CCC(CC)c1ccc(OC)c2nc(Oc3ccc(Cl)cc3CN(C)C)n(C)c12 [Example 9, 1-(5-Chloro-2-{[7-(1-ethylpropyl)-4-methoxy-1-methyl-1H-benzimidazol-2-yl]oxy}phenyl)-N,N-dimethylmethanamine] gave a melting point of 121 to 123 °C. Molecule CCC(CC)c1ccc(Cl)c2nc(Nc3c(C)cc(-n4cccn4)cc3OC)n(C)c12 [Example 57, 4-Chloro-7-(1-ethylpropyl)-N-[2-methoxy-6-methyl-4-(1H-pyrazol-1-yl)phenyl]-1-methyl-1H-benzimidazol-2-amine] has a melting point of 237 to 239 °C. For CCC(CC)c1ccc(Cl)c2nc(Oc3c(Cl)cc(Cl)cc3NC)n(C)c12 [Example 28, 3,5-Dichloro-2-{[4-chloro-7-(1-ethylpropyl)-1-methyl-1H-benzimidazol-2-yl]oxy}-N-methylaniline], the melting point was 162 to 163 °C. CCC(CC)c1ccc(Cl)c2nc(Nc3c(C)cc(S(C)(=O)=O)cc3OC)n(C)c12 [Example 47, 4-Chloro-7-(1-ethylpropyl)-N-[2-methoxy-6-methyl-4-(methylsulfonyl)phenyl]-1-methyl-1H-benzimidazol-2-amine] showed a melting point of 234 to 236 °C. In the case of CCC(CC)c1ccc(OC)c2nc(Nc3ccc(Cl)cc3N(C)C)n(C)c12 [Example 21, 4-Chloro-N^1-[7-(1-ethylpropyl)-4-methoxy-1-methyl-1H-benzimidazol-2-yl]-N^2,N^2-dimethylbenzene-1,2-diamine], the melting point is reported as 47 to 49 °C. With CCOc1ccc(C(CC)CC)c2c1nc(Oc1c(C)cc(Cl)cc1Cl)n2C [Example 73, 2-(2,4-Dichloro-6-methylphenoxy)-4-ethoxy-7-(1-ethylpropyl)-1-methyl-1H-benzimidazole] the melting point was 116 to 117 °C. With CCC(CC)c1ccc(Cl)c2nc(Nc3c(C)cc(-n4ccc(C(F)(F)F)n4)cc3OC)n(C)c12 [Example 58, 4-Chloro-7-(1-ethylpropyl)-N-{2-methoxy-6-methyl-4-[3-(trifluoromethyl)-1H-pyrazol-1-yl]phenyl}-1-methyl-1H-benzimidazol-2-amine] the melting point was 249 to 251 °C. With CCC(CC)c1ccc(Cl)c2nc(Oc3c(C)cc([Si](C)(C)C)cc3Cl)n(C)c12 the melting point was 146 to 148 °C. CCC(CC)c1ccc(OC)c2nc(Nc3ccc(Cl)cc3C(F)(F)F)n(C)c12 [Example 17, N-[4-Chloro-2-(trifluoromethyl)phenyl]-7-(1-ethylpropyl)-4-methoxy-1-methyl-1H-benzimidazol-2-amine] gave a melting point of 122 to 123 °C. For CCC(CC)c1ccc(OC)c2nc(Oc3ccc(C)nc3C(F)(F)F)n(C)c12 [Example 11, 7-(1-Ethylpropyl)-4-methoxy-1-methyl-2-{[6-methyl-2-(trifluoromethyl)pyridin-3-yl]oxy}-1H-benzimidazole], the melting point was 135 to 137 °C. CCC(CC)c1ccc(Cl)c2nc(Nc3c(C)cc(C(N)=O)cc3OC)n(C)c12 [Example 48, 4-{[4-Chloro-7-(1-ethylpropyl)-1-methyl-1H-benzimidazol-2-yl]amino}-3-methoxy-5-methylbenzamide] gave a melting point of 298 to 299 °C. Molecule CCC(CC(=O)O)c1ccc(Cl)c2nc(Oc3c(C)cc(Cl)cc3Cl)n(C)c12 (stereo not drawn) [Example 99, 3-[4-Chloro-2-(2,4-dichloro-6-methylphenoxy)-1-methyl-1H-benzimidazol-7-yl]pentanoic acid] has a melting point of 201 to 202 °C. In the case of CCC(CC)c1ccc(Cl)c2nc(Oc3c(Cl)cc(OC(F)(F)F)cc3Br)n(C)c12 [Example 41, 2-[2-Bromo-6-chloro-4-(trifluoromethoxy)phenoxy]-4-chloro-7-(1-ethylpropyl)-1-methyl-1H-benzimidazole], the melting point is reported as 149 to 151 °C. CCC(CC)c1ccc(Cl)c2nc(Oc3c(C)cc(Br)cc3Cl)n(C)c12 [Example 33, 2-(4-Bromo-2-chloro-6-methylphenoxy)-4-chloro-7-(1-ethylpropyl)-1-methyl-1H-benzimidazole] gave a melting point of 163 to 164 °C. Work on CCC(CC)c1ccc(OC)c2nc(Oc3ccc(OC(F)(F)F)cc3-n3ccnc3)n(C)c12 [Example 82, 7-(1-Ethylpropyl)-2-[2-(1H-imidazol-1-yl)-4-(trifluoromethoxy)phenoxy]-4-methoxy-1-methyl-1H-benzimidazole] yielded a melting point of 168 to 169 °C.

Biological target: T1, human CRF receptor (Homo sapiens, UniProt P34998)
T1 construct: expressed in transfected cells; host or cells: CHO cells (membrane fraction)
T1 sequence (P34998 24-415): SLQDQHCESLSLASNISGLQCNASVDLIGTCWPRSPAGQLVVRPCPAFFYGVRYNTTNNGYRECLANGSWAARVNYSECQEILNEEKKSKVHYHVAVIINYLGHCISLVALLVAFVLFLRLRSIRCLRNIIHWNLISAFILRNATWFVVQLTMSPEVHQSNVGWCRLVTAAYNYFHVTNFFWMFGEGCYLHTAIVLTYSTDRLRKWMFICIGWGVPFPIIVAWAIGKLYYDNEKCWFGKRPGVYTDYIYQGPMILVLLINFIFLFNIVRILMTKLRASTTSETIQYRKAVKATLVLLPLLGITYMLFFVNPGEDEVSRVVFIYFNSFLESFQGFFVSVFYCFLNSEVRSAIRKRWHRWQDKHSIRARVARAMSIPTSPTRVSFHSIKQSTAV
Experiment: Measurement of CRF Binding Inhibitory Rate (receptor binding experiment with 125I-CRF)
Conditions: human CRF receptor expressing CHO cellular membrane fraction; 50 pM ovine 125I-CRF; 0.05 nM to 10 μM of compound; room temperature 1.5 hr; read-out: IC50 values (CRF binding inhibition)
Experimental: Measurement of CRF Binding Inhibitory Rate
A receptor binding experiment was carried out using a human CRF receptor expressing CHO cellular membrane fraction and ovine CRF, [^125I]-tyr^0(^125I-CRF). 1000 nM of a test compound was incubated with 1 μg of human CRF receptor expressing CHO cellular membrane fraction and 50 pM of ^125I-CRF in a binding assay buffer (50 mM Tris-HCl, 5 mM EDTA, 10 mM MgCl2, 0.05% CHAPS, 0.1% BSA, 0.5 mM PMSF, 0.1 μg/mL pepstatin, 20 μg/mL leupeptin, pH 7.5). In addition, for measuring nonspecific binding (NSB), 0.1 μM unlabelled human Urocortin was incubated with 5 μg of human CRF receptor expressing CHO cellular membrane fraction and 50 pM of ^125I-CRF in a binding assay buffer. After a binding reaction was carried out at room temperature for 1.5 hr, the membrane was entrapped on a glass filter (UniFilter plate GF-C/Perkin Elmer) by suction filtration using a cell harvester (Perkin Elmer), and washed with ice-cooled 50 mM Tris-HCl (pH 7.5). After drying the glass filter, a liquid scintillation cocktail (Microscinti 0, Perkin Elmer) was added, and the radioactivity of ^125I-CRF remaining on a glass filter was measured using Topcount (Perkin Elmer).
(TB-SB)/(TB-NSB)×100 (SB: radioactivity when a compound is added, TB: maximum binding radioactivity, NSB: nonspecific binding radioactivity) were calculated to obtain binding inhibitory rates under the range of the presence from 0.05 nM to 10 μM of each compounds. The IC50 values were calculated by using GraphPad Prism software.
CCC(CC)c1ccc(Cl)c2nc(Oc3c(Cl)cc(Cl)cc3[Si](C)(C)C)n(C)c12 [Example 60, 4-Chloro-2-[2,4-dichloro-6-(trimethylsilyl)phenoxy]-7-(1-ethylpropyl)-1-methyl-1H-benzimidazole] gave an IC50 of under 1000 nM. In the case of CCC(CC)c1ccc(Cl)c2nc(Nc3c(C)cc(Cl)cc3OC)[nH]c12 [Example 67, 4-Chloro-N-(4-chloro-2-methoxy-6-methylphenyl)-7-(1-ethylpropyl)-1H-benzimidazol-2-amine], the IC50 is reported as under 1000 nM. Molecule CCC(CC)c1ccc(OC)c2nc(Oc3nn(C)c(C)c3C)n(C)c12 [Example 14, 7-(1-Ethylpropyl)-4-methoxy-1-methyl-2-[(1,4,5-trimethyl-1H-pyrazol-3-yl)oxy]-1H-benzimidazole] has an IC50 of under 1000 nM. CCC(CC)c1ccc(OC)c2nc(Oc3ccc(OC(F)(F)F)cc3Cl)n(C)c12 [Example 1, 2-[2-Chloro-4-(trifluoromethoxy)phenoxy]-7-(1-ethylpropyl)-4-methoxy-1-methyl-1H-benzimidazole] showed an IC50 of under 1000 nM. For CCC(CC)c1ccc(Cl)c2nc(Oc3c(C)cc(OC(F)(F)F)cc3CN(C)C)n(C)c12 [Example 84, 1-[2-{[4-Chloro-7-(1-ethylpropyl)-1-methyl-1H-benzimidazol-2-yl]oxy}-3-methyl-5-(trifluoromethoxy)phenyl]-N,N-dimethylmethanamine], the IC50 was under 1000 nM. CCC(CC)c1ccc(Cl)c2nc(Oc3c(C(F)(F)F)cc(C(F)(F)F)nc3C)n(C)c12 [Example 76, 4-Chloro-7-(1-ethylpropyl)-1-methyl-2-{[2-methyl-4,6-bis(trifluoromethyl)pyridin-3-yl]oxy}-1H-benzimidazole] showed an IC50 of under 1000 nM.
